Where two headings read alike, the source gives them in different places.
Columns and labels:
HIV-1 (strain LAV) = test: microbe, parasite or virus in culture; assay type: cell-based
Excerpt: It is often desirable to screen a number of racemic mixtures of nucleosides as a preliminary step to determine which warrant further resolution into enantiomerically enriched components and evaluation of antiviral activity. The ability of nucleosides to inhibit HIV can be measured by various experimental techniques. The technique used herein, and described in detail below, measures the inhibition of viral replication in phytohemagglutinin (PHA) stimulated human peripheral blood mononuclear (PBM) cells infected with HIV-1 (strain LAV). The amount of virus produced is determined by measuring the virus-coded reverse transcriptase enzyme. The amount of enzyme produced is proportional to the amount of virus produced.
A. Three-day-old phytohemagglutinin-stimulated PBM cells (10^6 cells/ml) from hepatitis B and HIV-1 seronegative healthy donors were infected with HIV-1 (strain LAV) at a concentration of about 100 times the 50% tissue culture infectious dose (TICD 50) per ml and cultured in the presence and absence of various concentrations of antiviral compounds.
B. Approximately one hour after infection, the medium, with the compound to be tested (2 times the final concentration in medium) or without compound, was added to the flasks (5 ml; final volume 10 ml). AZT was used as a positive control.
C. The cells were exposed to the virus (about 2×10^5 dpm/ml, as determined by reverse transcriptase assay) and then placed in a CO2 incubator. HIV-1 (strain LAV) was obtained from the Center for Disease Control, Atlanta, Ga. The methods used for culturing the PBM cells, harvesting the virus and determining the reverse transcriptase activity were those described by McDougal et al. (J. Immun. Meth. 76, 171-183, 1985) and Spira et al. (J. Clin. Meth. 25, 97-99, 1987), except that fungizone was not included in the medium (see Schinazi, et al., Antimicrob. Agents Chemother. 32, 1784-1787 (1988); Id., 34:1061-1067 (1990)).
D. On day 6, the cells and supernatant were transferred to a 15 ml tube and centrifuged at about 900 g for 10 minutes. Five ml of supernatant were removed and the virus was concentrated by centrifugation at 40,000 rpm for 30 minutes (Beckman 70.1 Ti rotor). The solubilized virus pellet was processed for determination of the levels of reverse transcriptase. Results are expressed in dpm/ml of sampled supernatant. Virus from smaller volumes of supernatant (1 ml) can also be concentrated by centrifugation prior to solubilization and determination of reverse transcriptase levels.

human PBM cells = test: Egress of radiolabeled (±)-FTC from human PBM cells; assay type: in vitro ADME; conditions: 48 hours after the removal of the extracellular drug
Procedure: (§1) Studies are conducted in duplicate. Uninfected cells (2×10^6 ml) are suspended in the appropriate medium supplemented with serum (10 ml per timepoint) and incubated at 37° C. in a 5% CO2 incubator. Radiolabeled FTC concentration is 10 μM. After pulsing the cells with the labeled compound for the desired time, the cells are thoroughly washed and then replenished with fresh medium without the antiviral drugs (0 hr). At 0, 2, 4, 6, 12, 24, and 48 hours (second incubation time), the cells are removed, and immediately extracted with 60% cold methanol/water. The extract is obtained by centrifugation and removal of the cell pellet. The extracts are lyophilized and then stored at −70° C. Prior to analysis, the material is resuspended in 250 μl of HPLC buffer and immediately analyzed.
(§2) Either a Micromeritics or Hewlett-Packard model 1090 PHLC system is used with an anion exchange Partisil 10 SAX column (Whatman, Inc.), at a flow rate of 1 ml/min, 1 kpsi pressure, using uv detection at 262 nm.
(§3) The mobile phase consists of:
(§4) b. 2 mM NaH2PO4/16 mM NaOAc (pH=6.6)
(§5) Separation method: isocratic for 5 min with A, followed by a 15 min linear gradient to 100% B, followed by a 20 min linear gradient to 100% C, followed by 10 min linear gradient to 100% D, followed by 30 min isocratic with 100% D.

[1] = as above; assay type: in vitro ADME; conditions: human PBM cells, after 24 hour pulse with 10 μM; read-out: intracellular half-life (converted)
Procedure: as §1, §2, §3, §4, §5

HIV RT = target: T1, HIV RT (Human immunodeficiency virus type 1 group M subtype B, UniProt P04585); test: Affinity of triphosphate against HIV RT; assay type: biochemical; conditions: read-out: affinity (K^1) against HIV RT
T1 construct: (±)-FTC triphosphate against HIV RT is 0.2 μM

[2] = target: reverse transcriptase activity; conditions: read-out: EC50, concentration required to reduce the reverse transcriptase activity by 50%; cited from earlier work
[3] = test system: AZT-resistant, HIV isolates; conditions: isolates from patients treated with AZT for longer than 36 weeks; cited from earlier work
HIV = conditions: cited from earlier work
[4] = Human immunodeficiency virus 1, PBMC, 0.001 μM, read-out: % Inhibition (Corrected)
[5] = Human immunodeficiency virus 1, PBMC, 0.005 μM, read-out: % Inhibition (Corrected)
[6] = Human immunodeficiency virus 1, PBMC, 0.01 μM, read-out: % Inhibition (Corrected)
[7] = Human immunodeficiency virus 1, PBMC, 0.05 μM, read-out: % Inhibition (Corrected)
[8] = Human immunodeficiency virus 1, PBMC, 0.1 μM, read-out: % Inhibition (Corrected)
[9] = Human immunodeficiency virus 1, PBMC, 0.5 μM, read-out: % Inhibition (Corrected)

Nc1ccn(C2CSC(CO)O2)c(=O)n1 (stereo not drawn) [BCH-189 (−), 2-hydroxymethyl-5-(cytosin-1-yl)-1,3-oxathiolane]
DPM/ml (HIV-1 (strain LAV); 0.001 μM): 76,400 DPM/ml | DPM/ml (HIV-1 (strain LAV); 0.005 μM): 66,875 DPM/ml | DPM/ml (HIV-1 (strain LAV); 0.01 μM): 54,170 DPM/ml | DPM/ml (HIV-1 (strain LAV); 0.05 μM): 57,615 DPM/ml | DPM/ml (HIV-1 (strain LAV); 0.1 μM): 34,705 DPM/ml | DPM/ml (HIV-1 (strain LAV); 0.5 μM): 15,250 DPM/ml | inhibition at 0.001 µM (HIV-1 (strain LAV); [4]): 23.6% | inhibition at 0.005 µM (HIV-1 (strain LAV); [5]): 34.2% | inhibition at 0.01 µM (HIV-1 (strain LAV); [6]): 48.2% | inhibition at 0.05 µM (HIV-1 (strain LAV); [7]): 44.4% | inhibition at 0.1 µM (HIV-1 (strain LAV); [8]): 69.7% | inhibition at 0.5 µM (HIV-1 (strain LAV); [9]): 91.2% | EC50 (HIV-1 (strain LAV); human PBM cells infected with HIV-1, enantiomers isolated by chiral HPLC (Example 3), read-out: EC50): 16 nM

Nc1ccn([C@H]2CC[C@@H](CO)O2)c(=O)n1 [DDC, dideoxycytidine, reference compound]
EC50 (HIV-1 (strain LAV); Human immunodeficiency virus 1, PBMC, comparison nucleosides, source not stated, read-out: EC50): 11 nM

Nc1nc(=O)n(C2CSC(COP(=O)(O)OP(=O)(O)OP(=O)(O)O)O2)cc1F (racemic) [FTC-triphosphate]
intracellular concentration (human PBM cells): 1 to 5 µM | half-life at 10 μM [1]: ~12 h | Ki (HIV RT): 200 nM

Nc1nc2c(ncn2[C@H]2C=C[C@@H](CO)O2)c(=O)[nH]1 [(−)-enantiomer of carbovir, 2′,3′-didehydro-2′,3′-dideoxyguanosine]
EC50 [2]: 800 nM

Nc1nc(=O)n(C2CSC(CO)O2)cc1F (single isomer, unassigned; (+)) [DLS-059 (+), (+)-2-hydroxymethyl-5-(5-fluorocytosin-1-yl)-1,3-oxathiolane]
DPM/ml (HIV-1 (strain LAV); 0.001 μM, listed as FTC (+)): 94,340 DPM/ml | % Inhibition (Corrected) (HIV-1 (strain LAV); 0.001 μM, listed as FTC (+), 0.001 µM): 3.8% | DPM/ml (HIV-1 (strain LAV); 0.005 μM, listed as FTC (+)): 107,430 DPM/ml | % Inhibition (Corrected) (HIV-1 (strain LAV); 0.005 μM, listed as FTC (+), 0.005 µM): −10.6% | DPM/ml (HIV-1 (strain LAV); 0.01 μM, listed as FTC (+)): 99,465 DPM/ml | % Inhibition (Corrected) (HIV-1 (strain LAV); 0.01 μM, listed as FTC (+), 0.01 µM): −1.8% | DPM/ml (HIV-1 (strain LAV); 0.05 μM, listed as FTC (+)): 87,120 DPM/ml | % Inhibition (Corrected) (HIV-1 (strain LAV); 0.05 μM, listed as FTC (+), 0.05 µM): 11.8% | DPM/ml (HIV-1 (strain LAV); 0.1 μM, listed as FTC (+)): 86,340 DPM/ml | % Inhibition (Corrected) (HIV-1 (strain LAV); 0.1 μM, listed as FTC (+), 0.1 µM): 12.7% | DPM/ml (HIV-1 (strain LAV); 0.5 μM, listed as FTC (+)): 33,225 DPM/ml | % Inhibition (Corrected) (HIV-1 (strain LAV); 0.5 μM, listed as FTC (+), 0.5 µM): 71.4% | EC50 (HIV-1 (strain LAV); summary range, listed as (+)-enantiomer of FTC, read-out: EC50 against HIV): 280 to 840 nM

Nc1ccn(C2CSC(CO)O2)c(=O)n1 (racemic) [BCH-189 (±), 2-hydroxymethyl-5-(cytosin-1-yl)-1,3-oxathiolane, reference compound]
replication of AZT-resistant HIV isolates [3]: inhibit the replication | DPM/ml (HIV-1 (strain LAV); 0.001 μM): 65,170 DPM/ml | DPM/ml (HIV-1 (strain LAV); 0.005 μM): 62,595 DPM/ml | DPM/ml (HIV-1 (strain LAV); 0.01 μM): 70,875 DPM/ml | DPM/ml (HIV-1 (strain LAV); 0.05 μM): 77,650 DPM/ml | DPM/ml (HIV-1 (strain LAV); 0.1 μM): 33,165 DPM/ml | DPM/ml (HIV-1 (strain LAV); 0.5 μM): 10,765 DPM/ml | DPM/ml (HIV-1 (strain LAV); 1 μM): 7,745 DPM/ml | DPM/ml (HIV-1 (strain LAV); 5 μM): 6,800 DPM/ml | DPM/ml (HIV-1 (strain LAV); 10 μM): 4,470 DPM/ml | EC50 (HIV-1 (strain LAV); Human immunodeficiency virus 1, PBMC, human PBM cells infected with HIV-1, enantiomers isolated by chiral HPLC (Example 3), read-out: EC50): 81 nM | inhibition at 0.001 µM (HIV-1 (strain LAV); [4]): 36.1% | inhibition at 0.005 µM (HIV-1 (strain LAV); [5]): 38.9% | inhibition at 0.01 µM (HIV-1 (strain LAV); [6]): 29.8% | inhibition at 0.05 µM (HIV-1 (strain LAV); [7]): 22.3% | inhibition at 0.1 µM (HIV-1 (strain LAV); [8]): 71.4% | inhibition at 0.5 µM (HIV-1 (strain LAV); [9]): 96.2% | inhibition at 1 µM (HIV-1 (strain LAV); Human immunodeficiency virus 1, PBMC, 1 μM, read-out: % Inhibition (Corrected)): 99.5% | inhibition at 5 µM (HIV-1 (strain LAV); Human immunodeficiency virus 1, PBMC, 5 μM, read-out: % Inhibition (Corrected)): 101% | inhibition at 10 µM (HIV-1 (strain LAV); Human immunodeficiency virus 1, PBMC, 10 μM, read-out: % Inhibition (Corrected)): 103% | activity against HIV compared with AZT (HIV): approximately the same activity against HIV as AZT

Source: patent US20090239887A1, “Method of resolution and antiviral activity of 1,3-oxathiolane nucleoside enantiomers” (Emory University, priority 1990, published 2009)
